Reference: US5043343A (priority 1989, dated 1991)
Where a name gives a salt, the structure may show the parent alone.

Legend:
[1] = target: muscarinic receptors (3H-QNB site, cerebral cortex); format: binding, Hooded Lister rats; settings: 0.27nM 3H-QNB, tris buffer pH 7.7, 37° C., 30 min; rat cerebral cortex
[2] = target: muscarinic receptors (3H-OXO-M site, cerebral cortex); experiment: Radio ligand binding: displacement of muscarinic agonist 3H-Oxotremorine-M (3H-OXO-M), rat cerebral cortex membranes; parameters: species or system Hooded Lister rats; settings: 2 nM 3H-OXO-M, 2mM magnesium chloride, tris buffer pH 7.7, 37° C., 30 min

| SMILES | IC50 [1] [nM] | IC50 [2] [nM] |
| --- | --- | --- |
| Nc1noc(C23CCCN(C2)C3)n1 [Example E1, 5-(3-Amino-1,2,4-oxadiazol-5-yl)-1-azabicyclo[3.1.11]heptane] | 11000 | 11 |
| Cc1noc(C23CCCN(C2)C3)n1 [Example E2, 5-(3-Methyl-1,2,4-oxadiazol-5-yl)-1-azabicyclo[3.1.1]heptane oxalate salt] | 5000 | 15 |
| c1ncc(C23CCCN(C2)C3)o1 [Example E3, 5-(1,3-Oxazol-5-yl)-1-azabicyc[3.1.1]heptane oxalate salt] | 6250 | 37 |
| c1coc(C23CCCN(C2)C3)n1 [Example E4, 5-(1,3-Oxazol-2-yl)-1-azabicvclo[3.1.1]heptane oxalate salt] | 60000 | 540 |
| CCc1noc(C23CCCN(C2)C3)n1 [Example E5, 5-(3-Ethyl-1.2.4-oxadiazol-5-yl)-1-azabicyclo[3.1.11]-heptane oxalate salt] | 5200 | 71 |
| CCCc1noc(C23CCCN(C2)C3)n1 [Example E6, 5-(3-Propyl-1,2,4-oxadiazol-5-yl)-1-azabicyclo[3.1.11]heptane oxalate salt] | 1700 | 40 |
| C1CN2CC(c3nc(C4CC4)no3)(C1)C2 [Example E7, 5-(3-Cyclopropyl-1,2,4-oxadiazol-5-yl)-1-azabicyclo-[3.1.1]heptane oxalate salt] | 580 | 62 |
| CCCCc1noc(C23CCCN(C2)C3)n1 [Example E8, 5-(3-Butyl-1,2,4-oxadiazol-5-yl)-1-azabicyclo[3.1.11]heptane oxalate salt] | 1950 | 49 |
| COCc1noc(C23CCCN(C2)C3)n1 [Example E9, 5-(3-Methoxymethyl-1,2,4-oxadiazol-5-yl)-1-azabicyclo-[3.1.11]heptane oxalate salt] | 13000 | 178 |
| CCCCCc1noc(C23CCCN(C2)C3)n1 [Example E10, 5-(3-Pentyl-1,2,4-oxadiazol-5-yl)-1-azabicyclo[3.1.1]heptane oxalate salt] | 2400 | 141 |
| C/C=C/Cc1noc(C23CCCN(C2)C3)n1 [Example E11, E-5-(3-But-2-enyl-1,2,4-oxadiazol-5-yl)-1-azabicyclo-[3.1.11]heptane oxalate salt] | 1850 | 165 |
| Cc1nnc(C23CCCN(C2)C3)o1 [Example E13, 5-(2-Methyl-1,3,4-oxadiazol-5-yl)-1-azabicyclo[3 1.1]heptane oxalate salt] | 16500 | 207 |
| CO/N=C/C12CCCN(C1)C2 [Example E14, oxalate salt] | 24000 | 109 |
| CON=C(C)C12CCCN(C1)C2 [Example E15, E and Z-5-Acetyl-1-azabicyclo[3.1.1]heptane O-methyloxime oxalate salt] | 58000 | 290 |
